“And” between values parts separate entries of the source, which are not always exact repeats. Equal values may be shown once. “Also recorded” adds a separate entry of the source.
Legend:
[1] = molecular target: T1, Recombinant human PHOSPHO1 (Homo sapiens, UniProt Q8TCT1); assay: PHOSPHO1 phosphatase assay (BIOMOL Green, β-glycerol phosphate); assay type: biochemical; settings: for Inhibition of PHOSPHO1 activity (in words): all concentrations tested (0-100 µM); for IC50: recombinant human PHOSPHO1 50 ng, 0-100 µM, 2.5 mM β-glycerol phosphate, read-out: IC50, inhibition of PHOSPHO1 activity
T1 construct: made in house
T1 sequence (Q8TCT1 1-267): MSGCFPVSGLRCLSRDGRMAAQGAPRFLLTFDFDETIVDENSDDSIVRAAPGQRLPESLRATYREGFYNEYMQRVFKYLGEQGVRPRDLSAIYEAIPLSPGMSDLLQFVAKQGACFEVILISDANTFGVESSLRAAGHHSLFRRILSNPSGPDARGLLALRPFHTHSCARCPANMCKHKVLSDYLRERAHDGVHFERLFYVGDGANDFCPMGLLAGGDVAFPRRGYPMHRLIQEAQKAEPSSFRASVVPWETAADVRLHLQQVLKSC
Description: Recombinant human PHOSPHO1 (50 ng) was generated as previously described and incubated with varying concentrations of the aforementioned PPIs and […] in experimental assay buffer (20 mM Tris, 2 mM MgCl2 & 25 μg/ml BSA) at 37 °C for 15 min. Using the BIOMOL® Green assay (Enzo, Exeter, UK), standards (0-2 nM) and samples were then incubated with 2.5 mM β-glycerol phosphate for 30 min at 37 °C with gentle agitation. The reaction was stopped using 100 μl BIOMOL® Green and after being left for 30 min at room temperature, the absorbance was read using spectrophotometry at 630 nm. […] Using the BIOMOL® Green assay, standards (0-2 nM) and samples were then incubated with 0.5 mM p-nitrophenyl phosphate (pNPP) for 30 min at 37 °C with gentle agitation. The reaction was stopped using 100 μl BIOMOL® Green and after being left for 30 min at room temperature, the absorbance was read using spectrophotometry at 630 nm.

recombinant human TNAP = molecular target: T2, recombinant human TNAP (Homo sapiens, UniProt P05186); assay: TNAP phosphatase assay (BIOMOL Green, pNPP); assay type: biochemical; settings: all concentrations tested (0-100 µM)
T2 construct: purchased R&D Systems
T2 sequence (P05186 18-524): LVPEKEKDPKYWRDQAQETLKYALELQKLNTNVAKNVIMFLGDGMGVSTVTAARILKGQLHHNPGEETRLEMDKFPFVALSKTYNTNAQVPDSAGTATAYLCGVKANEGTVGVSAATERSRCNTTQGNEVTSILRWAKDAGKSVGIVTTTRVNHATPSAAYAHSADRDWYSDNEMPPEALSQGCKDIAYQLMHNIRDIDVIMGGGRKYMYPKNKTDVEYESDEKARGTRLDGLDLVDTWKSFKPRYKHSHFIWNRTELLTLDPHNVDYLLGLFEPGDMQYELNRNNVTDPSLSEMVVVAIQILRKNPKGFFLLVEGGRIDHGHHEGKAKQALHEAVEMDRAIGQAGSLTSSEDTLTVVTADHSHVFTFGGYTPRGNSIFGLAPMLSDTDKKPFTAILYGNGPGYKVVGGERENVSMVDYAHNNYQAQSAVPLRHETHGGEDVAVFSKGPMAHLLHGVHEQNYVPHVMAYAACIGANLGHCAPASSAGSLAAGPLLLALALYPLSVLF
Description: Recombinant human PHOSPHO1 (50 ng) was generated as previously described and incubated with varying concentrations of the aforementioned PPIs and H2RAs in experimental assay buffer (20 mM Tris, 2 mM MgCl2 & 25 µg/ml BSA) at 37 °C for 15 min. Using the BIOMOL® Green assay (Enzo, Exeter, UK), standards (0-2 nM) and samples were then incubated with 2.5 mM β-glycerol phosphate for 30 min at 37 °C with gentle agitation. The reaction was stopped using 100 µl BIOMOL® Green and after being left for 30 min at room temperature, the absorbance was read using spectrophotometry at 630 nm. For TNAP, 2 ng recombinant human TNAP (R&D Systems, Abington, UK), was incubated with varying concentrations of the aforementioned PPIs and H2RAs in experimental assay buffer (1 M diethylamine hydrochloride, 1 mM MgCl2 and 20 µM ZnCl2). Using the BIOMOL® Green assay, standards (0-2 nM) and samples were then incubated with 0.5 mM p-nitrophenyl phosphate (pNPP) for 30 min at 37 °C with gentle agitation. The reaction was stopped using 100 µl BIOMOL® Green and after being left for 30 min at room temperature, the absorbance was read using spectrophotometry at 630 nm.

[2] = test system: Primary calvarial osteoblasts; assay: Primary osteoblast matrix mineralisation (Alizarin red, 28 days); assay type: cell-based, mice
Description: Primary calvarial osteoblasts were obtained from 4-day-old wild-type C57Bl/6 mice. Primary osteoblasts were isolated by sequential enzyme digestion of excised calvarial bones using a four-step process as has previously been described [1 mg/ml collagenase type II in Hanks’ balanced salt solution (HBSS) for 10 min; 1 mg/ml collagenase type II in HBSS for 30 min; 4 mM EDTA for 10 min; 1 mg/ml collagenase type II in HBSS for 30 min]. The first digest was discarded and the cells were re-suspended in growth medium consisting of a-MEM (Invitrogen, Paisley, UK) supplemented with 10% (v/v) FBS and 1% gentamycin (Invitrogen). Osteoblasts were seeded at a density of 1 × 10^4 cells/cm^2 and grown to confluency at which point 2 mM β-glycerophosphate and 50 µg/ml ascorbic acid was added along with a PPI (0–50 µM) as described in the results. Media was changed every 2–3 days for the duration of the 28-day experiments. After 28 days, primary cell cultures were fixed in 4% paraformaldehyde for 5 min at room temperature. Cell monolayers were stained with aqueous 2% (w/v) Alizarin red solution for 5 min at room temperature. The bound stain was solubilised in 10% cetylpyridinium chloride and the optical density of the resultant eluted solution measured by spectrophotometry at 570 nm.

osteoblasts = test system: osteoblasts; parameters: method as in PMID 23937530; settings: cited from earlier work
[3] = molecular target: T1, Recombinant human PHOSPHO1; parameters: method as in PMID 17227223; settings: non-competitive; cited from earlier work
[4] = test system: tissue non-specific alkaline phosphatase (TNAP); parameters: method as in PMID 17227223; settings: cited from earlier work
developing chick embryos = test system: developing chick embryos; parameters: method as in PMID 20053388; settings: administration to developing chick embryos; cited from earlier work
osteoblast MV = settings: cited from earlier work
rodents = test system: rodents; parameters: method as in PMID 11589371, PMID 26229922; settings: rodents administered the drug; cited from earlier work
healthy subjects = settings: short-term treatment; cited from earlier work

SMILES	Inhibition of PHOSPHO1 activity (in words) [1]	Inhibition of TNAP activity (in words) (recombinant human TNAP)	Matrix mineralisation (Alizarin red) ([2]; 10 µM)	IC50 [1]	Ability of osteoblasts to mineralise their matrix (osteoblasts)	other results
CN/C(=N/CCSCc1nc[nH]c1C)NC#N [cimetidine]	no inhibitory effects; also recorded: no inhibition	–	–	–	–	–
COc1ccc2nc([S@@+]([O-])Cc3ncc(C)c(OC)c3C)[nH]c2c1 [esomeprazole]	–	did not inhibit	significantly inhibited matrix mineralisation	730 nM and 726 nM	decreased the ability of osteoblasts to mineralise their matrix	–
NC(N)=Nc1nc(CSCCC(N)=NS(N)(=O)=O)cs1 [famotidine]	no inhibitory effects; also recorded: no inhibition	–	–	–	–	–
Cc1c(OCC(F)(F)F)ccnc1C[S+]([O-])c1nc2ccccc2[nH]1 (centres unmarked) [lansoprazole]	–	did not inhibit	significantly decreased matrix mineralisation	2770 nM	decreased the ability of osteoblasts to mineralise their matrix	Inhibition of recombinant human PHOSPHO1 activity [3]: over 70%; Matrix mineralisation (Alizarin red) ([2]; 5 µM): significantly decreased matrix mineralisation; Effect on TNAP activity [4]: no effect; Mineralisation of leg and wing long bones (developing chick embryos): completely inhibited mineralisation; Inhibition of osteoblast MV calcification (osteoblast MV): 57%; Mineralisation of MVs isolated from osteoblasts (osteoblast MV): impairs their mineralisation
CNC(=C[N+](=O)[O-])NCCSCc1csc(CN(C)C)n1 [nizatidine]	no inhibitory effects; also recorded: no inhibition	–	–	–	–	–
COc1ccc2[nH]c([S+]([O-])Cc3ncc(C)c(OC)c3C)nc2c1 (centres unmarked) [omeprazole]	–	did not inhibit	significantly inhibited matrix mineralisation	2800 nM	decreased the ability of osteoblasts to mineralise their matrix	Bone mineral content and BMD (rodents): reduced bone mineral content and BMD; Effect on calcium absorption (healthy subjects): not found to have inhibitory effects
COc1ccnc(C[S+]([O-])c2nc3ccc(OC(F)F)cc3[nH]2)c1OC (centres unmarked) [pantoprazole]	–	did not inhibit	not sufficient to inhibit matrix mineralisation	19300 nM	–	Matrix mineralisation (Alizarin red) ([2]; 5 µM): not sufficient to inhibit matrix mineralisation; Matrix mineralisation (Alizarin red) ([2]; 50 µM): significant decrease in matrix mineralisation
CNC(=C[N+](=O)[O-])NCCSCc1ccc(CN(C)C)o1 [ranitidine]	no inhibitory effects; also recorded: no inhibition	–	–	–	–	–

Source: PMC8531085, “Proton Pump Inhibitors Inhibit PHOSPHO1 Activity and Matrix Mineralisation In Vitro” (Calcified Tissue International, 2021)
